Data as given in US20140206624A1, “TREATMENT OF LEUKEMIA” (THE BRIGHAM AND WOMEN'S HOSPITAL, INC., priority 2011, published 2014).

Experiments:
L-GMP population = test: L-GMP and mature myeloid cell proportion in leukemic BM; assay type: in vivo, mouse; details: seven days following pI-pC, Mx1-Cre+
Method: (§1) Seven days following the administration of saline or pI-pC, secondary mice transplanted with MLL-AF9-positive FoxO1/3/4^floxed; Mx1-Cre+ leukmic BM cells were euthanized. Leukemic BM cells were then isolated from each treatment condition (Saline (Ctrl) versus pI-pC (pI-pC)) were analyzed for the proportion of L-GMPs (lineage^low, Sca-1^−, cKit^hi, CD34^+, FcgRII/III^+, p=0.039; n=3).
as §1, with “leukemic” for “leukmic”, “mature myeloid cells (lineage^hi, CD11b^+, p=0.0098; n=3)” for “L-GMPs (lineage^low, Sca-1^−, cKit^hi, CD34^+, FcgRII/III^+, p=0.039; n=3).”
L-GMP and GMP populations were analyzed and sorted with a BD FACSARIA™ instrument (BD™ Biosciences). To analyze and isolate L-GMPs and GMPs, total BM cells were recovered from flushing the tibias and femurs of leukemic and healthy mice respectively with PBS supplemented with 2% FBS and 1% Penicillin/Streptomycin (F-PBS). […] For Phosphoflow experiments, cells were stained with cKit-Ax750 and CD34-antibodies in combination with phospho-AKT^Ser473-PE, phospho-AKT^Thr308-APC or phospho-S6^Ser235/236-APC antibodies and analyzed on a FACSAria according to the following protocol: • 1. […]

MLL-AF9 induced AML = test: MLL-AF9 BMT assay, WBC monitoring and survival/latency; assay type: in vivo, mouse
Excerpt: WBC analysis of peripheral blood collected every 4-14 days post-transplant from Mx1-Cre+ saline and pI-pC-treated mice. Data is independent from Panel C (n=4).
Kaplan-Meier survival curve analysis of recipient mice Mx1-Cre− transplanted and treated as described above; n=6, p=0.6899.
Kaplan-Meier survival curve analysis of recipient mice Mx1-Cre+ transplanted and treated as described above. (p=0.0009; n=10).
After transduction, infected cells were transplanted into lethally irradiated (2 doses of 450rad gIR separated by 12 hours) F1 FVB/C57/Bl6 mice. Recipient mice developed leukemia within 70-80 days with a median survival of 77 days. Mononuclear BM cells recovered from leukemic mice were then transplanted into secondary sub-lethally irradiated recipients. Fourteen days following transplant, secondary recipients were administered intra-peritoneally three doses of saline or 12.5 mg/kg pI-pC (GE Healthcare Life Sciences) every 2 days. Mice were then monitored for external (i.e. moribund) and internal (white blood cell counts) signs of leukemia.
To distinguish whether disrupting FoxO1/3/4 expression eliminated MLL-AF9 leukemia or merely delayed the onset, FoxO1/3/4^floxed; Mx1-Cre−; MLL-AF9 and FoxO1/3/4^floxed; Mx1-Cre+; MLL-AF9 leukemic cells were separately transplanted into sub-lethally irradiated recipients. Fourteen days post-transplant, mice were administered either pI-pC or saline and subsequently monitored daily for clinical signs of leukemia. Peripheral blood from recipient mice was collected and analyzed for WBC counts every 4-14 days. Mice were euthanized upon displaying external morbidity and/or elevated WBC counts. […] However, despite efficient excision of FoxO1/3/4 (FIGS. 10C-10F) the majority of mice eventually succumbed to leukemia (FIG. 9F).

polyinosine-polycytidyline [pI-pC]
L-GMPs (L-GMP population): immunophenotypic reduction
lineage^hi, CD11b^hi(+) myeloid cells (L-GMP population): concomitant increase
latency for the onset of AML (MLL-AF9 induced AML; Mx1-Cre+ leukemic cells, excision of FoxO1/3/4): significantly longer latency
WBC counts (MLL-AF9 induced AML; Mx1-Cre+ mice, blood every 4-14 days): lower WBC counts than saline-treated controls
mice disease-free up to 5 months post-excision (MLL-AF9 induced AML; Mx1-Cre+, n=10): 20%
